Test results reported in ChEMBL document CHEMBL5727982, “Inhibitors of cyclin-dependent kinase 7 (CDK7)” (2020).

Molecular target: Cyclin-dependent kinase 7/ cyclin H (Homo sapiens, UniProt P50613)
Assay: In Vitro Kinase Assay: In vitro kinase assays with immunoprecipitated proteins (or recombinant CAK complexes) were performed as follows. Kinase reactions were performed in 25 μL of final volume of reaction buffer (50 mM Hepes, pH 7.5, 150 mM NaCl, 10 mM MgCl2, 5% glycerol, 25 μM ATP, and 10 μCi of [γ-32P]ATP). Each reaction contained 1 μg of RNAP II. Incubation was at 30° C. for 30-45 min. Reactions were terminated by addition of 5 μL of 5×SDS-PAGE sample buffer and incubated at 95° C. for 5 min. Reactions were analyzed by SDS-PAGE, and the dried gel was exposed to film or PhosphorImager plate.
Format: protein-complex assay

Sequence of Cyclin-dependent kinase 7/ cyclin H (P51946 whole entry): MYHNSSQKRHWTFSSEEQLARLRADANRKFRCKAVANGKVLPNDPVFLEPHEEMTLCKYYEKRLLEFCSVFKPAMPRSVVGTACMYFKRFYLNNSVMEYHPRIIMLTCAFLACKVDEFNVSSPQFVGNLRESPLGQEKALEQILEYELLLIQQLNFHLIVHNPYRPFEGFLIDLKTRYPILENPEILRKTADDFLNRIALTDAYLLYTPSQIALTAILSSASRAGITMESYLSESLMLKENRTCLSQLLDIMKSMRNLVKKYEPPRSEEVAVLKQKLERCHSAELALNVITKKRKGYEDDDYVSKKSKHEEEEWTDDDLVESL
Sequence of Cyclin-dependent kinase 7/ cyclin H (P50613 whole entry): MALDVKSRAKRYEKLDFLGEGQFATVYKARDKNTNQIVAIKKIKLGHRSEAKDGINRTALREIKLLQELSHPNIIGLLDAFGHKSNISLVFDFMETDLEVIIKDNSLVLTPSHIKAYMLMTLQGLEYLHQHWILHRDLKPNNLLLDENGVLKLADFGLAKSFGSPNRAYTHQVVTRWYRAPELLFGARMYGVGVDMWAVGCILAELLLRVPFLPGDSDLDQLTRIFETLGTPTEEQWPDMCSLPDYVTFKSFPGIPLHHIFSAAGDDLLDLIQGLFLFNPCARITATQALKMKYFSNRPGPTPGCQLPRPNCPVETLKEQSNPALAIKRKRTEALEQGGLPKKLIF

With CN(C)C/C=C/C(=O)Nc1ccc(S(=O)(=O)Nc2cccc(Nc3ncc(Cl)c(-c4c[nH]c5ccccc45)n3)c2)cc1 the IC50 was < 0.1 µM.
